Tests used:
deadnettle = assay: Test C postemergence; assay type: in vivo, Lamium amplexicaule; details: for Plant response rating (0 to 100), Deadnettle: postemergence; for Plant response rating, Deadnettle: Postemergence, scale 0 to 100 (0 no effect, 100 complete control)
From the text: (§1) Seeds of plant species selected from blackgrass (Alopecurus myosuroides), Italian ryegrass (Lolium multiflorum), wheat, winter (winter wheat, Triticum aestivum), galium (catchweed bedstraw, Galium aparine), corn (Zea mays), large (Lg) crabgrass (Digitaria sanguinalis), giant foxtail (Setaria faberii), johnsongrass (Sorghum halepense), lambsquarters (Chenopodium album), morningglory (Ipomoea coccinea), yellow nutsedge (Cyperus esculentus), pigweed (Amaranthus retroflexus), ragweed (common ragweed, Ambrosia elatior), soybean (Glycine max), barnyardgrass (Echinochloa crus-galli), oilseed rape (Brassica napus), waterhemp (common waterhemp, Amaranthus rudis), kochia (Kochia scoparia), wild oat (Avena fatua), surinam grass (Brachiaria decumbens), foxtail, green (green foxtail, Setaria viridis), goosegrass (Eleusine indica), bromegrass, downy (downy bromegrass, Bromus tectorum), nightshade (eastern black nightshade, Solanum ptycanthum), cocklebur (common cocklebur, Xanthium strumarium), cupgrass, woolly (woolly cupgrass, Eriochloa villosa), bermudagrass (Cynodon dactylon), sunflower, (common oilseed sunflower, Helianthus annuus), Russian thistle (Salsola kali), and velvetleaf (Abutilon theophrasti) were planted into a blend of loam soil and sand and treated preemergence with test chemicals formulated in a non-phytotoxic solvent mixture which included a surfactant.
(§2) At the same time, plants selected from these crop and weed species and also barley, winter (winter barley, Hordeum vulgare), windgrass (Apera spica-venti), chickweed (common chickweed, Stellaria media), deadnettle (henbit deadnettle, Lamium amplexicaule), and canarygrass (littleseed canarygrass, Phalaris minor) were planted in pots containing Redi-Earth® planting medium (Scotts Company, 14111 Scottslawn Road, Marysville, Ohio 43041) comprising spaghnum peat moss, vermiculite, wetting agent and starter nutrients and treated with postemergence applications of test chemicals formulated in the same manner. Plants ranged in height from 2 to 18 cm (1- to 4-leaf stage) for postemergence treatments. Treated plants and controls were maintained in a greenhouse for 13 to 15 days, after which time all species were compared to controls and visually evaluated. Plant response ratings, summarized in Table C, are based on a scale of 0 to 100 where 0 is no effect and 100 is complete control. A dash (-) response means no test result.

Russian thistle = assay: Test C preemergence; assay type: in vivo, Salsola kali; details: for Russian Thistle plant response rating: preemergence, scale 0 (no effect) to 100 (complete control); for Plant response rating, Russian Thistle: Preemergence, 31 g ai/ha, scale 0 to 100, 0 no effect, 100 complete control
From the text: as §1, §2

barnyardgrass = assay: Test G flood (paddy water application); assay type: in vivo, Echinochloa crus-galli; details: after 21 days, scale 0 to 100, 0 no effect, 100 complete control
From the text: (§3) Three plastic pots (ca. 16-cm diameter) per rate were partially filled with sterilized Tama silt loam soil comprising a 35:50:15 ratio of sand, silt and clay and 2.6% organic matter. Separate plantings for each of the three pots were as follows. Seeds from the U.S. of monochoria (Monochoria vaginalis), sedge, umbrella (small-flower umbrella sedge, Cyperus difformis), hardstem bulrush (Scirpus juncoides), and redstem (purple redstem, Ammannia coccinea), were planted into one 16-cm pot for each rate. Seeds from the U.S. of rice flatsedge (Cyperus iria), bearded sprangletop (Leptochloa fascicularis), one stand of 9 or 10 water seeded rice seedlings (Oryza sativa cv. ‘Japonica—M202’), and two stands of 3 or 4 transplanted rice seedlings (Oryza sativa cv. ‘Japonica—M202’) were planted into one 16-cm pot for each rate. Seeds from the U.S. of barnyardgrass (Echinochloa crus-galli), and late watergrass (Echinochloa oryzicola) were planted into one 16-cm pot for each rate. Plantings were sequential so that crop and weed species were at the 2.0 to 2.5-leaf stage at time of treatment.
(§4) Potted plants were grown in a greenhouse with day/night temperature settings of 30/27° C., and supplemental balanced lighting was provided to maintain a 16-hour photoperiod. Test pots were maintained in the greenhouse until test completion.
(§5) At time of treatment, test pots were flooded to 3 cm above the soil surface, treated by application of test compounds directly to the paddy water, and then maintained at that water depth for the duration of the test. Effects of treatments on rice and weeds were visually evaluated by comparison to untreated controls after 21 days. Plant response ratings, summarized in Table G, are based on a scale of 0 to 100 where 0 is no effect and 100 is complete control. A dash (-) response means no test result.

hardstem bulrush = assay: Test G flood (paddy water application); assay type: in vivo, Scirpus juncoides; details: after 21 days, scale 0 to 100, 0 no effect, 100 complete control
From the text: as §3, §4, §5

monochoria = assay: Test G flood (paddy water application); assay type: in vivo, Monochoria vaginalis; details: after 21 days, scale 0 to 100, 0 no effect, 100 complete control
From the text: as §3, §4, §5

[1] = system: transplanted rice seedlings; assay: Test G flood (paddy water application); assay type: in vivo, Oryza sativa cv. ‘Japonica—M202’; details: after 21 days, scale 0 to 100, 0 no effect, 100 complete control
From the text: as §3, §4, §5

[2] = system: water seeded rice seedlings; assay: Test G flood (paddy water application); assay type: in vivo, Oryza sativa cv. ‘Japonica—M202’; details: after 21 days, scale 0 to 100, 0 no effect, 100 complete control
From the text: as §3, §4, §5

sedge, umbrella = assay: Test G flood (paddy water application); assay type: in vivo, Cyperus difformis; details: after 21 days, scale 0 to 100, 0 no effect, 100 complete control
From the text: as §3, §4, §5

bearded sprangletop = assay: Test G flood (paddy water application); assay type: in vivo, Leptochloa fascicularis; details: after 21 days, scale 0 to 100, 0 no effect, 100 complete control
From the text: as §3, §4, §5

late watergrass = assay: Test G flood (paddy water application); assay type: in vivo, Echinochloa oryzicola; details: after 21 days, scale 0 to 100, 0 no effect, 100 complete control
From the text: as §3, §4, §5

| SMILES | Plant response rating (0 to 100), Deadnettle (deadnettle; 125 g ai/ha) | Plant response rating (0 to 100), Deadnettle (deadnettle; 250 g ai/ha) | Plant response rating, Deadnettle (deadnettle; 31 g ai/ha, 13 to 15 days) | Plant response rating, Deadnettle (deadnettle; 62 g ai/ha) | Russian Thistle plant response rating (Russian thistle; 62 g ai/ha) | Russian Thistle plant response rating (Russian thistle; 125 g ai/ha) | Russian Thistle plant response rating (Russian thistle; 250 g ai/ha) | Plant response rating, Russian Thistle (Russian thistle) | Plant response rating, Barnyardgrass (barnyardgrass; 32 g ai/ha) | Plant response rating, Barnyardgrass (barnyardgrass; 64 g ai/ha) | Plant response rating, Barnyardgrass (barnyardgrass; 125 g ai/ha) | Plant response rating, Barnyardgrass (barnyardgrass; 250 g ai/ha) | Plant response rating, Bulrush, Hardstem (hardstem bulrush; 32 g ai/ha) | Plant response rating, Bulrush, Hardstem (hardstem bulrush; 64 g ai/ha) | Plant response rating, Bulrush, Hardstem (hardstem bulrush; 125 g ai/ha) | Plant response rating, Bulrush, Hardstem (hardstem bulrush; 250 g ai/ha) | Plant response rating, Monochoria (monochoria; 32 g ai/ha) | Plant response rating, Monochoria (monochoria; 64 g ai/ha) | Plant response rating, Monochoria (monochoria; 125 g ai/ha) | Plant response rating, Monochoria (monochoria; 250 g ai/ha) | other results |
| --- | --- | --- | --- | --- | --- | --- | --- | --- | --- | --- | --- | --- | --- | --- | --- | --- | --- | --- | --- | --- | --- |
| Clc1cnc(Oc2ccccc2-n2cc(Br)cn2)nc1 [Compound 7, 2-[2-(4-bromo-1H-pyrazol-1-yl)phenoxy]-5-chloropyrimidine] | 98 | 100 | 85 | 98 |  |  |  |  |  |  |  |  |  |  |  |  |  |  |  |  |  |
| Fc1cnc(Oc2ccccc2-n2cc(Br)cn2)nc1 [Compound 10, 2-[2-(4-bromo-1H-pyrazol-1-yl)phenoxy]-5-fluoropyrimidine] | 80 | 95 | 50 | 60 |  |  |  |  |  |  |  |  |  |  |  |  |  |  |  |  |  |
| FC(F)(F)c1cnn(-c2ccccc2Oc2ncc(Cl)cn2)c1 [Compound 16] |  |  |  |  | 80 | 90 | 90 | 0 | 0 | 40 | 100 | 100 | 40 | 50 | 65 | 80 | 95 | 95 | 100 | 100 | Plant response rating, Rice, Transplanted ([1]; 32 g ai/ha): 0; Plant response rating, Rice, Water Seeded ([2]; 32 g ai/ha): 50; Plant response rating, Rice, Water Seeded ([2]; 64 g ai/ha): 90; Plant response rating, Rice, Water Seeded ([2]; 125 g ai/ha): 100; Plant response rating, Rice, Water Seeded ([2]; 250 g ai/ha): 100; Plant response rating, Sedge, Umbrella (sedge, umbrella; 32 g ai/ha): 0; Plant response rating, Sedge, Umbrella (sedge, umbrella; 64 g ai/ha): 60; Plant response rating, Sedge, Umbrella (sedge, umbrella; 125 g ai/ha): 100; Plant response rating, Sedge, Umbrella (sedge, umbrella; 250 g ai/ha): 100; Plant response rating, Sprangletop, Brdd. (bearded sprangletop; 32 g ai/ha): 65; Plant response rating, Sprangletop, Brdd. (bearded sprangletop; 64 g ai/ha): 100; Plant response rating, Sprangletop, Brdd. (bearded sprangletop; 125 g ai/ha): 100; Plant response rating, Sprangletop, Brdd. (bearded sprangletop; 250 g ai/ha): 100; Plant response rating, Watergrass, Late (late watergrass; 32 g ai/ha): 0; Plant response rating, Watergrass, Late (late watergrass; 64 g ai/ha): 0; Plant response rating, Watergrass, Late (late watergrass; 125 g ai/ha): 0; Plant response rating, Watergrass, Late (late watergrass; 250 g ai/ha): 80 |
| FC(F)(F)c1cnn(-c2ccccc2Oc2ncc(Br)cn2)c1 [Compound 18, 5-bromo-2-[2-[4-(trifluoromethyl)-1H-pyrazol-1-yl]phenoxy]pyrimidine] |  |  |  |  | 0 | 95 | 95 | 0 | 0 | 20 | 35 | 100 | 0 | 0 | 0 | 85 | 95 | 95 | 100 | 100 | Plant response rating, Rice, Transplanted ([1]; 125 g ai/ha): 15; Plant response rating, Rice, Transplanted ([1]; 250 g ai/ha): 20; Plant response rating, Rice, Water Seeded ([2]; 64 g ai/ha): 60; Plant response rating, Rice, Water Seeded ([2]; 125 g ai/ha): 90; Plant response rating, Rice, Water Seeded ([2]; 250 g ai/ha): 100; Plant response rating, Sedge, Umbrella (sedge, umbrella; 32 g ai/ha): 0; Plant response rating, Sedge, Umbrella (sedge, umbrella; 64 g ai/ha): 20; Plant response rating, Sedge, Umbrella (sedge, umbrella; 125 g ai/ha): 35; Plant response rating, Sedge, Umbrella (sedge, umbrella; 250 g ai/ha): 100; Plant response rating, Sprangletop, Brdd. (bearded sprangletop; 32 g ai/ha): 70; Plant response rating, Sprangletop, Brdd. (bearded sprangletop; 64 g ai/ha): 80; Plant response rating, Sprangletop, Brdd. (bearded sprangletop; 125 g ai/ha): 90; Plant response rating, Sprangletop, Brdd. (bearded sprangletop; 250 g ai/ha): 100; Plant response rating, Watergrass, Late (late watergrass; 32 g ai/ha): 0; Plant response rating, Watergrass, Late (late watergrass; 64 g ai/ha): 0; Plant response rating, Watergrass, Late (late watergrass; 125 g ai/ha): 0; Plant response rating, Watergrass, Late (late watergrass; 250 g ai/ha): 70 |

From patent US9695155B2, “Herbicidal substituted pyrimidinyloxy benzene compounds” (E. I. DU PONT DE NEMOURS AND COMPANY, priority 2013, dated 2017)
